IC50 data for 51 compounds are collected here from patent US10703764B2, “Benzopiperazine compositions as BET bromodomain inhibitors” (FORMA Therapeutics, Inc., priority 2013, dated 2020).

What is called pIC50 is −log10 of the IC50, conventionally taken in molar units. Low values mean a large IC50, high ones a small IC50.

In one assay the target is T1, BRD4 BD2 (Homo sapiens, UniProt O60885).
T1 construct: made in house
Kind of assay: AlphaScreen binding assay, BRD4 Bromodomain 2. The essentials: (§1)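 An AlphaScreen competition format was used with His-BRD4 BD1 or BD2 and biotin-H4 K5/8/12/16-acetyl peptide, each at matched final levels of 50 nM (BD1) or 100 nM (BD2). Incubation in HEPES/NaCl buffer with 0.1% BSA and 0.01% Triton X-100 ran ≥1 h before IC50 determination.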
On the technique in general: Bead proximity is the source of the signal in Alpha formats.

For another assay, the target named is T2, BRD4 BD1 (Homo sapiens, UniProt O60885).
T2 construct: made in house
Kind of assay: AlphaScreen binding assay, BRD4 Bromodomain 1. The essentials: as §1

Structures are written as SMILES. pIC50: −log10 of the molar value. Where only a bound is given, the exact number is not on record here.

Turning to `CC(=O)N1c2ccccc2N(S(=O)(=O)Cc2ccc(C#N)cc2)C[C@@H]1C` [Example I-963], the pIC50 is < 6.30 on BRD4 BD2 and < 5.00 on BRD4 BD1.
The corresponding values for `COC(=O)N1c2ccc(-c3cnn(CCO)c3)cc2N(C(=O)Oc2ccc(F)cc2)C[C@@H]1C` [Example I-1022] are 6.30 to 7.30 and 5.00 to 6.00.
As for `COc1ccccc1CNC(=O)N1C[C@H](C)N(C(C)=O)c2ccc(-c3ccc(S(C)(=O)=O)cc3)cc21` [Example I-972], the results for the negative logarithm of the IC50 (pIC50) on BRD4 BD2 and at BRD4 BD1 were < 6.30 and < 5.00, respectively.
In the case of `COc1cc(-c2ccc3c(c2)N(C(=O)c2ccco2)C[C@H](C)N3C(C)=O)ccc1F` [Example I-828], the negative-log IC50 (pIC50) on BRD4 BD2 was 6.30 to 7.30; at BRD4 BD1 it was 5.00 to 6.00.
Taken in the same sequence, the figures for `CC(=O)N1c2ccc(-c3cnn(CCO)c3)cc2N(C(=O)Oc2ccc(F)cc2F)C[C@@H]1C` [Example I-1009] were 6.30 to 7.30 and 5.00 to 6.00.
`COC(=O)N1c2ccc(-c3ccc(C(=O)NCCN)cc3)cc2N(C(=O)C2CC2)C[C@@H]1C` [Example I-463]: the negative-log IC50 (pIC50) is 6.30 to 7.30 at BRD4 BD2 and 5.00 to 6.00 at BRD4 BD1.
Taken in the same sequence, the figures for `CC(=O)N1c2ccc(-c3cnn(CC(=O)O)c3)cc2N(C(=O)C2CC2)C[C@@H]1C` [Example I-676] were < 6.30 and 5.00 to 6.00.
As for `CC(=O)N1c2ccc(C(=O)c3ccccc3)cc2N(C(=O)c2ccco2)C[C@@H]1C` [Example I-408], the negative-log IC50 (pIC50) at BRD4 BD2 is < 6.30; on BRD4 BD1, 5.00 to 6.00.
`COc1ncccc1C(=O)N1C[C@H](C)N(C(C)=O)c2ccccc21` [Example I-758]: the pIC50 on BRD4 BD2 was < 6.30; on BRD4 BD1, < 5.00.
For `CC(=O)N1c2ccc(-c3cccc4[nH]ccc34)cc2N(C(=O)c2ccco2)CC1C` (stereo not drawn) [Example I-846], the pIC50 on BRD4 BD2 was 6.30 to 7.30; at BRD4 BD1, 5.00 to 6.00.
For the compound `CC(=O)N1c2cnc(-c3ccc(S(C)(=O)=O)cc3)cc2N(C(=O)c2ccco2)C[C@@H]1C` [Example I-57, (S)-1-(1-(furan-2-carbonyl)-3-methyl-7-(4-(methylsulfonyl)phenyl)-2,3-dihydropyrido[3,4-b]pyrazin-4(1H)-yl)ethanone], the figures for the negative-log IC50 (pIC50) at BRD4 BD2 and on BRD4 BD1 were 6.30 to 7.30 and < 5.00, respectively.
Take `CC(=O)N1c2ccc(-c3ccc(S(C)(=O)=O)cc3)cc2N(C(=O)c2cc(C)[nH]n2)CC1C` (stereo not drawn) [Example I-981]: the negative-log IC50 (pIC50) at BRD4 BD2 was 6.30 to 7.30; at BRD4 BD1, 5.00 to 6.00.
Taken in the same sequence, the figures for `COc1ccc(CC(=O)N2C[C@H](C)N(C(C)=O)c3ccccc32)cc1` [Example I-698] were < 6.30 and < 5.00.
Turning to `CC(=O)N1c2ccc(-c3cnccn3)cc2N(C(=O)c2ccco2)C[C@@H]1C` [Example I-384], the pIC50 on BRD4 BD2 was 6.30 to 7.30; at BRD4 BD1, 5.00 to 6.00.
As for `CC(=O)N1c2ccccc2N(C(=O)c2ccc(C(C)C)cn2)C[C@@H]1C` [Example I-728], the negative logarithm of the IC50 (pIC50) at BRD4 BD2 is < 6.30; at BRD4 BD1 it was < 5.00.
Taken in the same sequence, the figures for `CC(=O)N1c2ccc(-c3cnn(C4CC4)c3)cc2N(C(=O)Oc2cncc3ccccc23)C[C@@H]1C` [Example I-525] were 6.30 to 7.30 and 5.00 to 6.00.
Turning to `CC(=O)N1c2ccc(-c3ccc(Oc4ccccc4)cc3)cc2N(C(=O)c2ccco2)C[C@@H]1C` [Example I-813], the values for the negative logarithm of the IC50 (pIC50) at BRD4 BD2 and on BRD4 BD1 were 6.30 to 7.30 and 5.00 to 6.00, respectively.
In the case of `CC(=O)N1c2ccc(-c3cnn(CCC(N)=O)c3)cc2N(C(=O)C2CC2)C[C@@H]1C` [Example I-674], the pIC50 on BRD4 BD2 is 6.30 to 7.30; at BRD4 BD1, 5.00 to 6.00.
The corresponding values for `CC(=O)N1c2ccc(-c3ccc4[nH]ccc4c3)cc2N(C(=O)c2ccco2)CC1C` (stereo not drawn) [Example I-385] are < 6.30 and 5.00 to 6.00.
For the compound `CC(=O)N1c2ccccc2N(C(=O)c2ccnc3ccccc23)C[C@@H]1C` [Example I-754], the values for the negative logarithm of the IC50 (pIC50) at BRD4 BD2 and at BRD4 BD1 were < 6.30 and < 5.00, respectively.
As to `CC(=O)N1c2ccc(-c3cccc4ccsc34)cc2N(C(=O)c2ccco2)C[C@@H]1C` [Example I-873], the negative-log IC50 (pIC50) was < 6.30 at BRD4 BD2 and 5.00 to 6.00 at BRD4 BD1.
In the case of `CC(=O)N1c2ccc(-c3ccc(S(C)(=O)=O)cc3)cc2N(C(=O)Nc2cccc(Cl)c2)C[C@@H]1C` [Example I-969], the negative-log IC50 (pIC50) is < 6.30 on BRD4 BD2 and < 5.00 at BRD4 BD1.
Taken in the same sequence, the figures for `COC(=O)N1c2ccc(-c3ccc(NS(C)(=O)=O)cc3)cc2N(C(=O)Oc2cccnc2)C[C@@H]1C` [Example I-1278] were < 6.30 and 5.00 to 6.00.
Take `CC(=O)N1c2ccc(-c3ccc(C#N)cc3)cc2N(C(=O)c2ccco2)C[C@@H]1C` [Example I-811]: the pIC50 on BRD4 BD2 is > 7.30; at BRD4 BD1 it was 5.00 to 6.00.
As to `CC(=O)N1c2ccccc2N(S(=O)(=O)c2cccc(C(F)(F)F)c2)C[C@@H]1C` [Example I-947], the negative-log IC50 (pIC50) on BRD4 BD2 was < 6.30; at BRD4 BD1, < 5.00.
The corresponding values for `CC(=O)N1c2ccc(-c3cnn(C)n3)cc2N(C(=O)c2ccco2)C[C@@H]1C` [Example I-419] are < 6.30 and 6.00 to 7.00.
With `CC(=O)N1c2ccc(-c3ccc4nn(C)cc4c3)cc2N(C(=O)c2ccco2)C[C@@H]1C` [Example I-404], the values for the negative-log IC50 (pIC50) at BRD4 BD2 and at BRD4 BD1 were 6.30 to 7.30 and 5.00 to 6.00, respectively.
Consider `CC(=O)N1c2ccc(-c3cnn(C4CC4)c3)cc2N(C(=O)Oc2ccc(C)cc2C)C[C@@H]1C` [Example I-516], for which the pIC50 on BRD4 BD2 was 6.30 to 7.30; at BRD4 BD1, 5.00 to 6.00.
Turning to `CC(=O)N1c2ccc(-c3ccc(S(C)(=O)=O)cc3)cc2N(C(=O)Oc2ccc(Cl)cc2)C[C@@H]1C` [Example I-226], the negative-log IC50 (pIC50) at BRD4 BD2 was 6.30 to 7.30; on BRD4 BD1, 5.00 to 6.00.
As for `C[C@H]1CN(C(=O)c2ccco2)c2cc(-c3ccc(S(C)(=O)=O)cc3)ccc2N1C(=O)c1ccno1` [Example I-375], the pIC50 at BRD4 BD2 is < 6.30; at BRD4 BD1, < 5.00.
The corresponding values for `COC(=O)N1c2ccc(-c3cnc(N)cn3)cc2N(C(=O)C2CC2)C[C@@H]1C` [Example I-458] are 6.30 to 7.30 and 5.00 to 6.00.
Consider `CC(=O)N1c2ccccc2N(C(=O)c2cccc3ccccc23)C[C@@H]1C` [Example I-719], for which the figures for the pIC50 at BRD4 BD2 and on BRD4 BD1 were < 6.30 and < 5.00, respectively.
For the compound `CC(=O)N1c2ccc(-c3ccc(S(C)(=O)=O)cc3)cc2N(C(=O)c2ccccn2)C[C@@H]1C` [Example I-782], the pIC50 was 6.30 to 7.30 on BRD4 BD2 and < 5.00 at BRD4 BD1.
For the compound `CC(=O)N1c2ccccc2N(Cc2cccc(Oc3ccccc3)c2)C[C@@H]1C` [Example I-918], the values for the negative-log IC50 (pIC50) on BRD4 BD2 and at BRD4 BD1 were < 6.30 and < 5.00, respectively.
As for `CC(=O)N1c2ccc(-c3ccc(S(C)(=O)=O)cc3)cc2N(C(=O)c2csnn2)C[C@@H]1C` [Example I-783], the pIC50 was < 6.30 on BRD4 BD2 and 5.00 to 6.00 on BRD4 BD1.
For `CC(C)OC(=O)N1C[C@H](C)N(C(=O)C2CC2)c2ccc(-c3cnn(CC(=O)N(C)C)c3)cc21` [Example I-311], the figures for the pIC50 at BRD4 BD2 and at BRD4 BD1 were 6.30 to 7.30 and 5.00 to 6.00, respectively.
For the compound `CC(=O)N1CCC[C@H](CN2C[C@H](C)N(C(C)=O)c3ccccc32)C1` [Example I-928], the pIC50 on BRD4 BD2 was < 6.30; on BRD4 BD1, < 5.00.
`CC(=O)N1c2ccc(-c3cnoc3)cc2N(C(=O)c2ccco2)C[C@@H]1C` [Example I-390]: the values for the negative-log IC50 (pIC50) on BRD4 BD2 and on BRD4 BD1 were 6.30 to 7.30 and 5.00 to 6.00, respectively.
For `CC(=O)N1c2ccc(-c3cnn(C4COC4)c3)cc2N(C(=O)OCC2(C)COC2)C[C@@H]1C` [Example I-61, (S)-(3-methyloxetan-3-yl)methyl 4-acetyl-3-methyl-7-(1-(oxetan-3-yl)-1H-pyrazol-4-yl)-3,4-dihydroquinoxaline-1(2H)-carboxylate], the results for the negative-log IC50 (pIC50) on BRD4 BD2 and on BRD4 BD1 were < 6.30 and 5.00 to 6.00, respectively.
Taken in the same sequence, the figures for `CC(C)OC(=O)N1C[C@H](C)N(C(=O)C2CC2)c2ccc(-c3ccc(C(=O)NCCN)cc3)cc21` [Example I-481] were < 6.30 and 6.00 to 7.00.
On to `CC(=O)N1c2ccccc2N(C(=O)COc2ccc(Cl)cc2)C[C@@H]1C` [Example I-732], for which the values for the pIC50 at BRD4 BD2 and at BRD4 BD1 were < 6.30 and < 5.00, respectively.
Take `C[C@H]1CN(C(=O)c2ccco2)c2cc(-c3ccc(S(C)(=O)=O)cc3)ccc2N1C=O` [Example I-103, (S)-4-(furan-2-carbonyl)-2-methyl-6-(4-(methylsulfonyl)phenyl)-3,4-dihydroquinoxaline-1(2H)-carbaldehyde]: the pIC50 is < 6.30 on BRD4 BD2 and < 5.00 on BRD4 BD1.
The corresponding values for `CC(=O)N1c2ccc(-c3cnc(N)cn3)cc2N(C(=O)C2CC2)C[C@@H]1C` [Example I-441] are 6.30 to 7.30 and 6.00 to 7.00.
Turning to `CC(=O)N1c2ccc(-c3c(C)noc3C)cc2N(C(=O)c2ccco2)C[C@@H]1C` [Example I-816], the pIC50 is < 6.30 on BRD4 BD2 and < 5.00 on BRD4 BD1.
Taken in the same sequence, the figures for `CC(=O)N1c2ccccc2N(Cc2ccc(C(C)C)cc2)C[C@@H]1C` [Example I-892] were < 6.30 and < 5.00.
For `CC(=O)N1c2ccccc2N(C(=O)c2ccc(F)cn2)C[C@@H]1C` [Example I-763], the negative-log IC50 (pIC50) at BRD4 BD2 is < 6.30; at BRD4 BD1, < 5.00.
As for `CC(C)OC(=O)N1C[C@H](C)N(C(=O)C2CC2)c2ccc(-c3cnn(CC(=O)N4CCCCC4)c3)cc21` [Example I-614], the negative logarithm of the IC50 (pIC50) is 6.30 to 7.30 at BRD4 BD2 and 5.00 to 6.00 at BRD4 BD1.
In the case of `CC(=O)N1c2ccc(-c3c(C)n[nH]c3C)cc2N(C(=O)OC(C)C)CC1C` (stereo not drawn) [Example I-333], the negative logarithm of the IC50 (pIC50) on BRD4 BD2 is < 6.30; on BRD4 BD1 it was 5.00 to 6.00.
For `CC(=O)N1c2ccc(-c3nccn3C)cc2N(C(=O)c2ccco2)C[C@@H]1C` [Example I-388], the pIC50 at BRD4 BD2 was < 6.30; at BRD4 BD1 it was < 5.00.
As to `COc1cc(Cl)ccc1S(=O)(=O)N1C[C@H](C)N(C(C)=O)c2ccccc21` [Example I-959], the pIC50 at BRD4 BD2 is < 6.30; on BRD4 BD1, < 5.00.
In the case of `CC(=O)N1c2ccccc2N(C(=O)c2ccc3nccn3c2)C[C@@H]1C` [Example I-776], the negative logarithm of the IC50 (pIC50) at BRD4 BD2 is < 6.30; at BRD4 BD1, < 5.00.
